Tested on: db/db mice
Assay: Investigation with db/db mice (blood glucose and lipids)
Type: in vivo, mouse
Conditions: for Glucose Diff. D o − D 12 / HDL-cholesterol Diff. D o − D 12 / Total cholesterol Diff. D o − D 12 / Triglycerides Diff. D o − D 12: change day 0 to day 12; for Glucose D o / HDL-cholesterol D o / Total cholesterol D o / Triglycerides D o: day 0; for HDL-cholesterol D 12 / Total cholesterol D 12 / Triglycerides D 12 / Glucose D 12: day 12; for Glucose D-4 / HDL-cholesterol D-4 / Total cholesterol D-4 / Triglycerides D-4: day −4
Protocol: The following compounds are investigated and compared to placebo (vehicle control).
The mentioned 3 compounds are tested in db/db mice during a time when diabetes is in a rapid developing stage. […] Each dosage group and the vehicle group comprise 7 mice. The suspensions used are prepared with peroxide free arachis oil as vehicle. Blood samples are collected by retro-orbital bleeding at days −4, 0 and 12. The blood levels of glucose, triglycerides, total cholesterol, and HDL-cholesterol are determined.
For evaluation of efficacy, the difference between the values of glucose, triglycerides, total cholesterol and HDL-cholesterol changing from day 0 to day 12 is determined and expressed in %. […] Overall evaluation consists in determining the efficacy of the compounds by calculating the whole extent of the effect expressed in %. […] This value is considered as a valuable indicator for the efficacy of the investigated compounds administered in a tolerated dose.

[1] = 30 mg/kg/day group versus vehicle group

For `C=C(c1ccc(C(=O)O)cc1)c1cc2c(cc1C)C(C)(C)CCC2(C)C` [Compound 2, 4-[1-(5,6,7,8-tetrahydro-3,5,5,8,8-pentamethyl-2-naphthalenyl)ethenyl]benzoic acid, reference compound], the “Glucose Diff. D o − D 12” value (0.3 mg/kg/day i.p.) was “+54.0%”, the “HDL-cholesterol Diff. D o − D 12” value (0.3 mg/kg/day i.p.) was −11.8% and the “Total cholesterol Diff. D o − D 12” value (0.3 mg/kg/day i.p.) was −12.3%. For the same molecule, the “Triglycerides Diff. D o − D 12” value (0.3 mg/kg/day i.p.) was −4.0%, the “Glucose D o” value (0.3 mg/kg/day i.p.) was 189 mg/dL and the “HDL-cholesterol D o” value (0.3 mg/kg/day i.p.) was 2.71 mmol/L. For the same molecule, the “Total cholesterol D o” value (0.3 mg/kg/day i.p.) was 3.99 mmol/L, the “Triglycerides D o” value (0.3 mg/kg/day i.p.) was 1.98 mmol/L and the “HDL-cholesterol D 12” value (0.3 mg/kg/day i.p.) was 2.39 mmol/L. The “Total cholesterol D 12” value (0.3 mg/kg/day i.p.) was 3.50 mmol/L, the “Triglycerides D 12” value (0.3 mg/kg/day i.p.) was 1.90 mmol/L and the “Glucose D-4” value (0.3 mg/kg/day i.p.) was 144 mg/dL. The “HDL-cholesterol D-4” value (0.3 mg/kg/day i.p.) was 2.48 mmol/L, the “Total cholesterol D-4” value (0.3 mg/kg/day i.p.) was 3.96 mmol/L and the “Triglycerides D-4” value (0.3 mg/kg/day i.p.) was 1.65 mmol/L. For the same molecule, the “Glucose levels (in words)” value (3 mg/kg/day) was “no significant change”, the “HDL-cholesterol levels (in words)” value (3 mg/kg/day) was “not influenced” and the “Triglyceride levels (in words)” value (3 mg/kg/day) was “hardly influenced”. The “Glucose Diff. D o − D 12” value (3.0 mg/kg/day i.p.) was “+30.4%”, the “HDL-cholesterol Diff. D o − D 12” value (3.0 mg/kg/day i.p.) was −8.3% and the “Total cholesterol Diff. D o − D 12” value (3.0 mg/kg/day i.p.) was −25.4%. For the same molecule, the “Triglycerides Diff. D o − D 12” value (3.0 mg/kg/day i.p.) was −24.8%, the “Glucose D o” value (3.0 mg/kg/day i.p.) was 175 mg/dL and the “HDL-cholesterol D o” value (3.0 mg/kg/day i.p.) was 2.77 mmol/L. The “Total cholesterol D o” value (3.0 mg/kg/day i.p.) was 4.65 mmol/L, the “Triglycerides D o” value (3.0 mg/kg/day i.p.) was 2.01 mmol/L and the “Glucose D 12” value (3.0 mg/kg/day i.p.) was 229 mg/dL. The “HDL-cholesterol D 12” value (3.0 mg/kg/day i.p.) was 2.54 mmol/L, the “Total cholesterol D 12” value (3.0 mg/kg/day i.p.) was 3.47 mmol/L and the “Triglycerides D 12” value (3.0 mg/kg/day i.p.) was 1.51 mmol/L. The “Glucose D-4” value (3.0 mg/kg/day i.p.) was 169 mg/dL, the “HDL-cholesterol D-4” value (3.0 mg/kg/day i.p.) was 2.66 mmol/L and the “Total cholesterol D-4” value (3.0 mg/kg/day i.p.) was 4.48 mmol/L. The “Triglycerides D-4” value (3.0 mg/kg/day i.p.) was 1.97 mmol/L, the “Glucose levels (in words)” value (30 mg/kg/day) was “only hardly influenced” and the “HDL-cholesterol levels (in words)” value (30 mg/kg/day) was “decreased”. For the same molecule, the “Total cholesterol levels (in words)” value (30 mg/kg/day) was “slightly lower”, the “Triglyceride levels (in words)” value (30 mg/kg/day) was “even raises triglyceride levels” and the “Overall extent of the effect on blood levels of Glucose” value [1] was “+5.6%”. The “Overall extent of the effect on blood levels of HDL-cholesterol” value [1] was −17.8%, the “Overall extent of the effect on blood levels of Total cholesterol” value [1] was −13.0% and the “Overall extent of the effect on blood levels of Triglycerides” value [1] was “+18.3%”. For the same molecule, the “Glucose Diff. D o − D 12” value (30 mg/kg/day i.p.) was “+54.8%”, the “HDL-cholesterol Diff. D o − D 12” value (30 mg/kg/day i.p.) was −21.6% and the “Total cholesterol Diff. D o − D 12” value (30 mg/kg/day i.p.) was −21.8%. For the same molecule, the “Triglycerides Diff. D o − D 12” value (30 mg/kg/day i.p.) was “+40.4%”, the “Glucose D o” value (30 mg/kg/day i.p.) was 155 mg/dL and the “HDL-cholesterol D o” value (30 mg/kg/day i.p.) was 3.10 mmol/L. For the same molecule, the “Total cholesterol D o” value (30 mg/kg/day i.p.) was 4.31 mmol/L, the “Triglycerides D o” value (30 mg/kg/day i.p.) was 1.61 mmol/L and the “Glucose D 12” value (30 mg/kg/day i.p.) was 240 mg/dL. For the same molecule, the “HDL-cholesterol D 12” value (30 mg/kg/day i.p.) was 2.43 mmol/L, the “Total cholesterol D 12” value (30 mg/kg/day i.p.) was 3.37 mmol/L and the “Triglycerides D 12” value (30 mg/kg/day i.p.) was 2.26 mmol/L. The “Glucose D-4” value (30 mg/kg/day i.p.) was 128 mg/dL, the “HDL-cholesterol D-4” value (30 mg/kg/day i.p.) was 2.74 mmol/L and the “Total cholesterol D-4” value (30 mg/kg/day i.p.) was 4.24 mmol/L. For the same molecule, the “Triglycerides D-4” value (30 mg/kg/day i.p.) was 1.75 mmol/L.

Source: patent US20080255206A1, “Rxr Agonists and Antagonists, Alone or in Combination with Ppar Ligands, in the Treatment of Metabolic and Cardiovascular Diseases” (priority 2005, published 2008)
